Measurements from patent US6376670B1, “Quinoline-indole antimicrobial agents, uses and compositions related thereto” (Sepracor Inc., priority 1997, dated 2002).

Key:
[1] = test system: methicillin-resistant Staphylococcus aureus (MRSA); experiment: Determination of MIC values (BHI broth, 96 well microtiter plate); format: cell-based; details: Staphylococcus aureus, MRSA, 16 h, BHI broth, 37° C., overnight (about 16 hours); read-out: MIC MRSA
Experimental: (§1) Stock solutions of compounds are prepared with a concentration of 10 mg/mL. These solutions are then diluted 1:4 to give a concentration of 2.5 mg/mL. The compounds are then serially diluted 1:2 for 6 iterations. The concentrations made for each compound are 2.5, 1.25, 0.625, 0.3125, 0.156, 0.078, and 0.039 mg/mL. A control sample (no compound) is run along with each compound tested. All dilutions are made in DMSO.
(§2) All wells of a 96 well microtiter plate are filled with 100 μL of BHI (Brain-Heart Infusion) broth. Columns on the plate are labeled 1-12, and rows are labeled A-H. Each column of wells is used to test one series of diluted compounds. Into each well of 100 μL of BHI broth, 1 μL of diluted compound is placed for a 1:100 dilution. This makes the final concentration of each drug series 25, 12.5, 6.25, 3.125, 1.56, 0.78, 0.39, and 0 μg/mL.
(§3) Test Organism: A sterile 15 mL screw cap tube is filled wth 3 mL of BHI broth. Next, 2-3 colonies of test organism are inoculated into the tube. The tube is then incubated at 37° C. in a CO2 (approx. 7%) atmosphere jar. The organisms are allowed to grow to the density of a 0.5 McFarland standard (10^8 cells/mL). The organism is then inoculated into each well of the microtiter plate containing the diluted compounds to be tested for MIC. The inoculum is 1 μL in volume and represents 10^5 to 10^6 cells/mL.
(§4) After inoculation the plates are covered and incubated at 37° C. and approx. 7-10% CO2 atmosphere overnight (about 16 hours). The plates are then observed for growth, the well with the lowest concentration of drug and no observable growth represents the well determining the MIC.

[2] = test system: vancomycin-resistant Enterococcus spp. (VRE); experiment: as above; format: cell-based; details: Enterococcus, VRE, 16 h, BHI broth, 37° C., overnight (about 16 hours); read-out: MIC VREF
Experimental: as §1, §2, §3, §4

SMILES	MIC [1] [µg/mL]	MIC [2] [µg/mL]
COc1ccc(NC(=O)N2CCN(C(=O)c3cc(-c4c[nH]c5ccc(Br)cc45)nc4ccccc34)CC2)c(OC)c1 [Example 63]	> 25	> 25
O=C(Nc1ccccc1C(F)(F)F)N1CCN(C(=O)c2cc(-c3c[nH]c4ccc(Br)cc34)nc3ccccc23)CC1 [Example 64]	> 25	> 25
O=C(Nc1ccc(C(F)(F)F)cc1)N1CCN(C(=O)c2cc(-c3c[nH]c4ccc(Br)cc34)nc3ccccc23)CC1 [Example 65]	< 25	< 7
O=C(Nc1ccc(Cl)cc1C(F)(F)F)N1CCN(C(=O)c2cc(-c3c[nH]c4ccc(Br)cc34)nc3ccccc23)CC1 [Example 66]	> 25	> 25
O=C(Nc1ccc(Cl)c(C(F)(F)F)c1)N1CCN(C(=O)c2cc(-c3c[nH]c4ccc(Br)cc34)nc3ccccc23)CC1 [Example 67]	< 7	< 7
O=C(Nc1ccc(OC(F)(F)F)cc1)N1CCN(C(=O)c2cc(-c3c[nH]c4ccc(Br)cc34)nc3ccccc23)CC1 [Example 68]	< 7	< 7
O=C(Nc1ccccc1OC(F)(F)F)N1CCN(C(=O)c2cc(-c3c[nH]c4ccc(Br)cc34)nc3ccccc23)CC1 [Example 69]	> 25	> 25
NCCCN1CCN(CCCNC(=O)c2cc(-c3c[nH]c4ccc(Br)cc34)nc3ccc(I)cc23)CC1 [Example 70]	< 7	< 25
NCC(=O)NCc1ccc(CNC(=O)c2cc(-c3c[nH]c4ccc(Br)cc34)nc3ccccc23)cc1 [Example 71]	< 25	> 25
NCCC(=O)NCc1ccc(CNC(=O)c2cc(-c3c[nH]c4ccc(Br)cc34)nc3ccccc23)cc1 [Example 72]	> 25	> 25
N[C@H](Cc1c[nH]cn1)C(=O)NCc1ccc(CNC(=O)c2cc(-c3c[nH]c4ccc(Br)cc34)nc3ccccc23)cc1 [Example 73]	< 25	< 25
NCc1ccc(CNC(=O)c2cc(-c3c[nH]c4ccc(Br)cc34)nc3ccc(C#CCN4CCOCC4)cc23)cc1 [Example 74]	< 7	< 25
NCc1ccc(CNC(=O)c2cc(-c3c[nH]c4ccc(Br)cc34)nc3ccc(C#CCN4CCC(Cc5ccccc5)CC4)cc23)cc1 [Example 75]	> 25	> 25
O=C(O)c1cc(-c2c[nH]c3cccc(F)c23)nc2ccccc12 [Example 77]	> 25	> 25
O=C(O)c1cc(-c2c[nH]c3cc(F)ccc23)nc2ccccc12 [Example 78]	> 25	> 25
NCc1ccc(CNC(=O)c2cc(-c3c[nH]c4cccc(F)c34)nc3ccccc23)cc1 [Example 79]	> 25	> 25

SMILES	MIC [1] [µg/mL]	MIC [2] [µg/mL]
NCc1ccc(CNC(=O)c2cc(-c3c[nH]c4cc(F)ccc34)nc3ccccc23)cc1 [Example 80]	< 25	< 25
NCc1ccc(CNC(=O)c2cc(-c3ccccc3)nc3ccccc23)cc1 [Example 81]	> 25	> 25
NCc1ccc(CNC(=O)c2cc(-c3ccoc3)nc3ccccc23)cc1 [Example 82]	> 25	> 25
NCc1ccc(CNC(=O)c2cc(-c3ccsc3)nc3ccc(Br)cc23)cc1 [Example 83]	> 25	> 25
NCc1ccc(CNC(=O)c2cc(-c3cccnc3)nc3ccc(Br)cc23)cc1 [Example 84]	< 7	< 25
O=C(NCc1ccc(CNC(=O)c2cc(-c3c[nH]c4ccc(Br)cc34)nc3ccccc23)cc1)Nc1ccc(C(F)(F)F)cc1 [Example 85]	< 7	< 25
Cn1ccc(-c2cc(C(=O)NCc3ccc(CN)cc3)c3ccccc3n2)c1 [Example 86]	> 25	> 25
NCc1ccc(CNC(=O)c2cc(-c3ccc4ccccc4c3)nc3ccccc23)cc1 [Example 87]	< 25	< 25
N=C(N)NCCC[C@H](NC(=O)c1cc(-c2c[nH]c3ccc(Br)cc23)nc2ccccc12)C(=O)O [Example 88]	> 25	> 25
O=C(NCc1ccc(CNC(=O)c2cc(-c3c[nH]c4ccc(Br)cc34)nc3ccccc23)cc1)Nc1cc(C(F)(F)F)cc(C(F)(F)F)c1 [Example 90]	< 25	< 7
NCc1ccc(CNC(=O)C2CC(c3c[nH]c4ccccc34)Nc3ccccc32)cc1 (centres unmarked) [Example 91]	> 25	> 25
CN(C)Cc1ccc(CNC(=O)c2cc(-c3c[nH]c4ccc(Br)cc34)nc3ccccc23)cc1 [Example 92]	< 25	< 25
NCc1ccc(CNC(=O)c2cc(-c3ccccn3)nc3ccccc23)cc1 [Example 93]	> 25	> 25
NCc1ccc(CNC(=O)c2cc(-c3ccncc3)nc3ccc(Br)cc23)cc1 [Example 94]	> 25	> 25
Cc1ccc2nc(-c3ccncc3)cc(C(=O)NCc3ccc(CN)cc3)c2c1 [Example 95]	> 25	> 25

The remaining lines, values ahead:

MIC [1] [µg/mL]	MIC [2] [µg/mL]	SMILES
< 25	< 25	COc1cc2nc(-c3c[nH]c4ccc(Br)cc34)cc(C(=O)NCc3ccc(CN)cc3)c2cc1OC [Example 98]
> 25	> 25	NCc1ccc(CNC(=O)c2cc(-c3c[nH]c4ccc(Br)cc34)nc3ccc(CO)cc23)cc1 [Example 100]
< 7	< 7	NCc1ccc(CNC(=O)c2cc(-c3c[nH]c4ccc(Br)cc34)nc3ccc(C#Cc4ccccc4)cc23)cc1 [Example 101]
> 25	< 25	COC(=O)c1ccc2nc(-c3c[nH]c4ccc(Br)cc34)cc(C(=O)NCc3ccc(CN)cc3)c2c1 [Example 105]
< 25	< 25	NC1CCC(NC(=O)c2cc(-c3c[nH]c4ccc(Br)cc34)nc3ccccc23)CC1 (centres unmarked) [Example 106]
< 7	< 7	NCc1ccc(CNC(=O)c2cc(-c3c[nH]c4ccc(Br)cc34)nc3ccc(Br)cc23)cc1 [Example 120]
< 7	< 7	NCc1ccc(CNC(=O)c2cc(-c3c[nH]c4ccc(Br)cc34)nc3ccc(Cl)cc23)cc1 [Example 121]
< 7	< 7	NCc1cccc(CNC(=O)c2cc(-c3c[nH]c4ccc(Br)cc34)nc3ccc(Br)cc23)c1 [Example 125]
< 7	< 7	O=C(c1cc(-c2c[nH]c3ccc(Br)cc23)nc2ccc(Br)cc12)N1CCCNCC1 [Example 126]
< 7	< 7	Cc1cc2nc(-c3c[nH]c4ccc(Br)cc34)cc(C(=O)NCc3cccc(CN)c3)c2cc1C [Example 129]
< 7	< 7	Cc1cc2nc(-c3c[nH]c4ccc(Br)cc34)cc(C(=O)N3CCCNCC3)c2cc1C [Example 130]
< 7	< 7	O=C(c1cc(-c2c[nH]c3ccc(Br)cc23)nc2ccc(Cl)cc12)N1CCCNCC1 [Example 135]
< 25	< 25	NC(=O)c1cc(-c2c[nH]c3ccc(Br)cc23)nc2ccc(C#CCN3CCCCC3)cc12 [Example 137]
> 25	< 25	NCc1ccc(CNC(=O)c2cc(-c3csc4ccc(Cl)cc34)nc3ccc(I)cc23)cc1 [Example 140]
> 25	> 25	O=C(O)c1cc(-c2c[nH]c3ccc(Br)cc23)nc2c(Cl)cccc12 [Example 141]
